Experimental data taken from US8636983B2, “Aminoglycoside and fosfomycin combination for treatment of ventilator associated pneumonia (VAP) and ventilator associated tracheal (VAT) bronchitis” (priority 2011, dated 2014).
Converted amounts (≈) assume the structure as drawn. Counter-ions that a name gives are not always drawn. Like-named read-outs stand apart in the source and are kept apart here.

Experiments:
[1] = pH and osmolality of amikacin starting material and solution; type: physicochemical; settings: starting material
Description: Amikacin Base, EP is compendial (Ph Eur) and is manufactured by ACS Dobfar S.p.a under DMF 13762. The API is manufactured in Bergamo, Italy. Fosfomycin Disodium is compendial (Ph Eur) and is manufactured by Ercros, S.A. under DMF 14341. The API is manufactured in Madrid, Spain. Rather than commercial amikacin sulfate, the amikacin base is the starting material. Amikacin base has a pH of approximately 11, and large amounts of HCl are required to neutralize the pH. In the two-part formulation (used to combine with equal volumes of 40 mg/mL fosfomycin to generate the final formulation of 50 mg/mL amikacin, 20 mg/mL fosfomycin), the amikacin 100 mg/mL solution has a final pH of 7.5-7.6 and has an osmolality of approximately 533 mOsmol/kg, of which only approximately 170 mOsmol/kg is due to the amikacin, the balance is from the chloride anion. This concentration of chloride anion provides the permeant anion that will prevent cough.
In contrast, the starting pH of amikacin sulfate is 3.5-5.5 and little or no HCl is needed to neutralize the pH of the solution. Note that in the Neiderman paper (supra) amikacin sulfate was delivered as an aerosol to patients with VAP, and bronchospasm was reported in some patients. […] As described above, a final formulation has an amikacin concentration of 50 mg/ml and chloride anion concentration of approximately 265 meq/liter. […]

in vivo [2] = assay: in vivo; set-up: species or system beagle dogs; settings: both sexes, beagle, dog, delivered as combination antibiotic aerosol, 7-day treatment
Procedure: Aerosol concentrations were determined on Days 1 and 7.

[3] = tested on: 62 Gram-negative, amikacin-resistant pathogens; assay: MIC by CLSI agar dilution, all 62 amikacin-resistant isolates; type: cell-based; settings: for MIC50: All 62 isolates
Description: (§1) Sixty-two amikacin-resistant strains were selected from a worldwide antimicrobial surveillance collection (SENTRY), which contains 35,000 organisms from six continents (56/62 organisms collected in 2011).

Pseudomonas aeruginosa [4] = assay: MIC by CLSI agar dilution, amikacin-resistant P. aeruginosa strains (SENTRY); type: cell-based; settings: 21 P. aeruginosa isolates
Description: as §1

in vivo [5] = settings: dog; for Cmax: both, beagle
Procedure: A GLP (Good Laboratory Practice) study was performed using 24 beagle dogs allocated to four dose groups (three males and three females per group) and exposed to aerosol generated with the PARI Investigational eFlow® Inline Nebulizer System using a closed-faced mask fitted with a mouth tube. The aerosols contained either control (water for injection) in Group 1 or a combined formulation containing 50 mg/mL amikacin and 20 mg/mL fosfomycin pH adjusted with HCl for Groups 2 to 4. Aerosol concentrations were determined on Days 1 and 7. The treatment period was for seven days with termination of the dogs on Day 8.
Toxicokinetic parameters were estimated using WinNonlin pharmacokinetic software version 5.2.1 (Pharsight Corp.). A non-compartmental approach consistent with the extravascular route of administration was used for parameter estimation. All parameters were generated from individual amikacin and fosfomycin concentrations in plasma from Days 1 and 7.

[6] = Aerosol particle size distribution (MMAD) in dog study; type: physicochemical; settings: analytical methods, eFlow Inline Nebulizer aerosol
Klebsiella pneumoniae = assay: MIC by CLSI agar dilution, amikacin-resistant K. pneumoniae strains (SENTRY); type: cell-based; settings: 20 K. pneumoniae isolates
Description: as §1

clinical = settings: both, human, in vivo
Procedure: Adult patients having a clinical diagnosis of VAP, with a Gram-positive or Gram-negative organism in a tracheal aspirate sample were expected to be on mechanical ventilation for ≧3 days.
Each adult patient received 3 escalating doses of a mixture of 50 mg/mL amikacin and 20 mg/mL fosfomycin, with doses separated by 24±2 hours (Table 1).
All treatments were administered with a single patient, multi-treatment nebulizer (Investigational eFlow® Inline Nebulizer System; PARI Pharma GMBH, Starnberg, Germany), positioned in the inspiratory tubing between the ventilator and the patient. The nebulizer remained inline until all treatments were delivered.
A placebo: 0.9% normal saline, having a volume matched to the antibiotic dosing schedule was delivered via the PARI Investigational eFlow® Inline Nebulizer System in mechanically ventilated patients.
The eFlow® Inline Nebulizer System was positioned in the inspiratory tubing between the Puritan Bennett 840 Ventilator and the patient. Once in place, the nebulizer remained inline until all study-drug doses were delivered. Humidification continued during the nebulization of the formulation and the delivery of the entire dose.
Patients are male or female between 18 years and 80 years of age with clinical diagnosis of VAP or VAT, a Gram-positive or Gram-negative bacteria on Gram stain of the tracheal aspirate and were expected to be on mechanical ventilation for at least three days.

Acinetobacter baumannii = assay: MIC by CLSI agar dilution, amikacin-resistant A. baumannii strains (SENTRY); type: cell-based; settings: for MIC50: 21 A. baumannii isolates
Description: as §1

Pseudomonas aeruginosa [7] = settings: 1477 Pseudomonas aeruginosa isolates, Zhanel et al.; cited from earlier work
[8] = tested on: Stenotrophomonas maltophilia; settings: Zhanel et al.; cited from earlier work
[9] = tested on: methicillin-resistant Staphylococcus aureus (MRSA); settings: 148 MRSA isolates, data from the 1980s; cited from earlier work
[10] = of water; cited from earlier work
[11] = inhaled; cited from earlier work
[12] = read-out: Median (MIC50) Amikacin MIC
[13] = read-out: Median (MIC50) Fosfomycin MIC

For `NCC[C@H](O)C(=O)N[C@@H]1C[C@H](N)[C@@H](O[C@H]2O[C@H](CN)[C@@H](O)[C@H](O)[C@H]2O)[C@H](O)[C@H]1O[C@H]1O[C@H](CO)[C@@H](O)[C@H](N)[C@H]1O` [Amikacin base], the pH [1] was “approximately 11”.
With `NCC[C@H](O)C(=O)N[C@@H]1C[C@H](N)[C@@H](O[C@H]2O[C@H](CN)[C@@H](O)[C@H](O)[C@H]2O)[C@H](O)[C@H]1O[C@H]1O[C@H](CO)[C@@H](O)[C@H](N)[C@H]1O` [Amikacin, amikacin] the NOAEL at 7 days (in vivo [2]) was 117 mg/kg/day, the MIC50 [3, 12] was 128 mg/L (≈ 219 µM) and the “amikacin concentration required to inhibit all 62 isolates” value ([3]; FIG. 4) was > 1024 µg/mL. The MIC50 (Pseudomonas aeruginosa [4]; [12]) was 128 mg/L (≈ 219 µM), the Cmax (in vivo [5]) was 13.2 to 39.3 µg/mL and the “accumulation following repeat dosing” value (in vivo [5]) was “no clear indication of accumulation”. For the same compound, the “particle size distribution (MMAD)” value [6] was 2.80 μm, the MIC50 (Klebsiella pneumoniae; [12]) was 256 mg/L (≈ 437 µM) and the Kp (clinical) was > 2000. For the same compound, the “Mean amikacin Cmax in tracheal aspirate, fold higher than MIC 90 for P. aeruginosa” value (clinical) was ≥ 406 fold, the “amikacin Cmax in tracheal aspirate, fold higher than MIC90 of P. aeruginosa” value (clinical) was ≥ 89 fold and the MIC (Acinetobacter baumannii; 5 A. baumannii isolates with high amikacin resistance) was > 1020 mg/L. For the same compound, the MIC50 (Acinetobacter baumannii; [12]) was 8 mg/L (≈ 13.7 µM), the “MIC 90” value (Pseudomonas aeruginosa [7]) was 32 mg/L (≈ 54.6 µM) and the “MIC 90” value [8] was > 64 mg/L.
`C[C@@H]1O[C@@H]1P(=O)(O)O` [Fosfomycin, fosfomycin] showed an NOAEL at 7 days (in vivo [2]) of 47.5 mg/kg/day, an MIC50 [3, 13] of 51.2 mg/L (≈ 371 µM) and an MIC50 (Pseudomonas aeruginosa [4]; [13]) of 51.2 mg/L (≈ 371 µM). The Cmax (in vivo [5]) was 8.7 to 28.7 µg/mL, the “accumulation following repeat dosing” value (in vivo [5]) was “no clear indication of accumulation” and the “particle size distribution (MMAD)” value [6] was 2.75 μm. For the same compound, the MIC50 (Klebsiella pneumoniae; [13]) was 25.6 mg/L (≈ 185 µM), the “MIC 90” value [9] was 32 mg/L (≈ 232 µM) and the Kp (clinical) was > 2000. For the same compound, the “Mean fosfomycin Cmax in tracheal aspirate, fold higher than MIC 90 for MRSA” value (clinical) was 281 fold, the “fosfomycin Cmax in tracheal aspirate, fold higher than MIC 90 of MRSA” value (clinical) was ≥ 54 fold and the “fosfomycin tracheal aspirate concentrations, fold above the MIC 90 for MRSA” value (clinical; 6 h) was ≥ 2.2 fold. The MIC50 (Acinetobacter baumannii; [13]) was 205 mg/L (≈ 1480 µM).
For `C[C@@H]1O[C@@H]1P(=O)(O)O` [disodium salt of fosfomycin, Fosfomycin disodium], the solubility [10] is given as 50 mg/mL.
In the case of `NC[C@H]1O[C@H](O[C@H]2[C@H](O)[C@@H](O[C@H]3O[C@H](CO)[C@@H](O)[C@H](N)[C@H]3O)[C@H](N)C[C@@H]2N)[C@H](N)C[C@@H]1O` [tobramycin], the airway half-life [11] is listed as “about 2 hours”.
